Reference: US9108983B2, “Pyrrole compounds, a process for their preparation and pharmaceutical compositions containing them” (LES LABORATOIRES SERVIER, priority 2013, dated 2015)
Counter-ions that a name gives are not always drawn. Like-named read-outs stand apart in the source and are kept apart here.

Columns and labels:
Bcl-2 protein = Bcl-2 protein (histag-Bcl-2, UniProtKB P10415) (Homo sapiens (Human), UniProt P10415); test: Inhibition of Bcl-2 by the fluorescence polarisation technique; format: binding; details: incubation for 2 hours, read-out: IC50 (nM) Bcl-2 FP
Description: The fluorescence polarisation tests were carried out on microplates (384 wells). The Bcl-2 protein, labelled (histag-Bcl-2 such that Bcl-2 corresponds to the UniProtKB® primary accession number: P10415), at a final concentration of 2.50×10^−8 M, is mixed with a fluorescent peptide (Fluorescein-[…]), at a final concentration of 1.00×10^−8 M in a buffer solution (Hepes 10 mM, NaCl 150 mM, Tween20 0.05%, pH 7.4), in the presence or absence of increasing concentrations of test compounds. After incubation for 2 hours, the fluorescence polarisation is measured.

[1] = tested on: RS4;11 leukaemia tumour line; test: In vitro cytotoxicity (Microculture Tetrazolium Assay); format: cell-based; details: RS4;11 cells, exposed for 48 hours, cell viability, read-out: IC50 (nM) MTT RS4;11
Description: The cytotoxicity studies were carried out on the RS4;11 leukaemia tumour line.
The cells are distributed onto microplates and exposed to the test compounds for 48 hours.
The cell viability is then quantified by a colorimetric assay, the Microculture Tetrazolium Assay (Cancer Res., 1987, 47, 939-942).

Bcl-2 protein, sequence (P10415 whole entry): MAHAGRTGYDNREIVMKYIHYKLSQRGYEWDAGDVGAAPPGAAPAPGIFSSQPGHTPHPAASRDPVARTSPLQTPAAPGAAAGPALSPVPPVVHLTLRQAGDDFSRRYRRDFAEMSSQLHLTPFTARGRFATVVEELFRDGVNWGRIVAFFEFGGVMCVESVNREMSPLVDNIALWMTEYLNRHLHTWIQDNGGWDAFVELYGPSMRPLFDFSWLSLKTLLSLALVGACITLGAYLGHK

Compound	IC50 (Bcl-2 protein)	IC50 ([1]; Homo sapiens, RS4-11, 48 h)	IC50 [1]
CN1CCN(C[C@@H]2Cc3ccccc3CN2C(=O)c2ccc(Cl)cc2-c2cc(C(=O)N(c3ccc(O)cc3)c3ccc4c(ccn4C)c3)cn2C)CC1 [Example 5, 5-(5-Chloro-2-{[(3S)-3-[(4-methylpiperazin-1-yl)methyl]-3,4-dihydroisoquinolin-2(1H)-yl]carbonyl}phenyl)-N-(4-hydroxyphenyl)-1-methyl-N-(1-methyl-1H-indol-5-yl)-1H-pyrrole-3-carboxamide hydrochloride]	21.2 nM	44.8 nM	–
CCn1cc(C(=O)N(c2ccc(O)cc2)c2ccc3c(ccn3C)c2)cc1-c1cc(Cl)ccc1C(=O)N1Cc2ccccc2C[C@H]1CN1CCN(C)CC1 [Example 6, 5-(5-Chloro-2-{[(3S)-3-[(4-methylpiperazin-1-yl)methyl]-3,4-dihydroisoquinolin-2(1H)-yl]carbonyl}phenyl)-1-ethyl-N-(4-hydroxyphenyl)-N-(1-methyl-1H-indol-5-yl)-1H-pyrrole-3-carboxamide]	25.2 nM	69 nM	–
CN1CCN(C[C@@H]2Cc3ccccc3CN2C(=O)c2ccc(Cl)cc2-c2cc(C(=O)N(c3ccc(O)cc3)c3ccc4c(ccn4C)c3)cn2C2CC2)CC1 [Example 7, 5-(5-Chloro-2-{[(3S)-3-[(4-methylpiperazin-1-yl)methyl]-3,4-dihydroisoquinolin-2(1H)-yl]carbonyl}phenyl)-1-cyclopropyl-N-(4-hydroxyphenyl)-N-(1-methyl-1H-indol-5-yl)-1H-pyrrole-3-carboxamide]	25.6 nM	90.6 nM	–
CN1CCN(C[C@@H]2Cc3ccccc3CN2C(=O)c2cc3c(cc2-c2cc(C(=O)N(c4ccc(O)cc4)c4ccc5c(ccn5C)c4)cn2C)OCO3)CC1 [Example 9, N-(4-Hydroxyphenyl)-1-methyl-N-(1-methyl-1H-indol-5-yl)-5-(6-{[(3S)-3-[(4-methylpiperazin-1-yl)methyl]-3,4-dihydroisoquinolin-2(1H)-yl]carbonyl}-1,3-benzodioxol-5-yl)-1H-pyrrole-3-carboxamide hydrochloride]	22.4 nM	87.5 nM	–
Cc1c(C(=O)N(c2ccccc2)c2ccc(O)cc2)cc(-c2cc(F)ccc2C(=O)N2Cc3ccccc3C[C@H]2CN2CCOCC2)n1C [Example 10, 5-(5-Fluoro-2-{[(3S)-3-(morpholin-4-ylmethyl)-3,4-dihydroisoquinolin-2(1H)-yl]carbonyl}phenyl)-N-(4-hydroxyphenyl)-1,2-dimethyl-N-phenyl-1H-pyrrole-3-carboxamide hydrochloride]	16.2 nM	205 nM	–
Cc1c(C(=O)N(c2ccc(O)cc2)c2ccc3c(cnn3C)c2)cc(-c2cc3c(cc2C(=O)N2Cc4ccccc4C[C@H]2CN2CCOCC2)OCO3)n1C [Example 14, N-(4-Hydroxyphenyl)-1,2-dlmethyl-N-(1-methyl-1H-indazol-5-yl)-5-(6-{[(3S)-3-(morpholil-4-ylmethyl)-3,4-dihydroisoquinolin-2(1H)-yl]carbonyl}-1,3-benzodioxol-5-yl)-1H-pyrrole-3-carboxamide hydrochloride]	3.7 nM	–	8.23 nM
Cc1c(C(=O)N(c2ccccc2)c2ccc(O)cc2)cc(-c2cc3c(cc2C(=O)N2Cc4ccccc4C[C@H]2CN2CCOCC2)OCO3)n1C [Example 15, N-(4-Hydroxyphenyl)-1,2-dimethyl-5-(6-{[(3S)-3-(morpholin-4-ylmethyl)-3,4-dihydroisoquinoin-2(1H)-yl]carbny}-1,3-benzodioxo-5-yl)-N-pheny-1H-pyrrole-3-carboxamide hydrochloride]	11.1 nM	–	69.4 nM
COc1ccc(C(=O)N2Cc3ccccc3C[C@H]2CN2CCOCC2)c(-c2cc(C(=O)N(c3ccccc3)c3ccc(O)cc3)c(C)n2C)c1 [Example 19, N-(4-Hydroxyphenyl)-5-(5-methoxy-2-{[(3S)-3-(morpholin-4-ylmethyl)-3,4-dihydroisoquinolin-2(1H)-yl]carbonyl}phenyl)-1,2-dimethyl-N-phenyl-. H-pyrrole-3-carboxamide hydrochloride]	6 nM	–	65.5 nM

Now from value to molecule, other results behind:

IC50 (Bcl-2 protein)	Compound	IC50 ([1]; Homo sapiens, RS4-11, 48 h)	IC50 [1]
14.2 nM	Cc1c(C(=O)N(c2ccccc2)c2ccc(O)cc2)cc(-c2cc(F)ccc2C(=O)N2Cc3ccccc3C[C@H]2CN2CCOCC2)n1CCCO [Example 11, 5-(5-Fluoro-2-{[(3S)-3-(morpholin-4-ylmethyl)-3,4-dihydroisoquinolin-2(1H)-yl]carbonyl}phenyl)-N-(4-hydroxyphenyl)-1-(3-hydroxypropyl)-2-methyl-N-phenyl-1H-pyrrole-3-carboxamide hydrochloride]	202 nM	–
5.5 nM	Cc1c(C(=O)N(c2ccc(O)cc2)c2ccc3c(cnn3C)c2)cc(-c2cc(F)ccc2C(=O)N2Cc3ccccc3C[C@H]2CN2CCOCC2)n1C [Example 12, 5-(5-Fluoro-2-{[(3S)-3-(morpholin-4-ylmethyl)-3,4-dihydroisoquinolin-2(1H)-yl]carbonyl}phenyl)-N-(4-hydroxyphenyl)-1,2-dimethyl-N-(1-methyl-1H-indazol-5-yl)-1H-pyrrole-3-carboxamide hydrochloride]	39.6 nM	–
4.4 nM	Cc1ccc(N(C(=O)c2cc(-c3cc4c(cc3C(=O)N3Cc5ccccc5C[C@H]3CN3CCOCC3)OCO4)n(C)c2C)c2ccc(O)cc2)cc1F [Example 13, N-(3-Fluoro-4-methylphenyl)-N-(4-hydroxyphenyl)-1,2-dimethyl-5-(6-{[(3S)-3-(morpholin-4-ylmethyl)-3,4-dihydroisoquinolin-2(1H)-yl]carbonyl}-1,3-benzodioxol-5-yl)-1H-pyrrole-3-carboxamide hydrochloride]	19.8 nM	–
12.6 nM	Cc1c(C(=O)N(c2ccc(O)cc2)c2cccc(F)c2)cc(-c2cc3c(cc2C(=O)N2Cc4ccccc4C[C@H]2CN2CCOCC2)OCO3)n1C [Example 16, N-(3-Fluorophenyl)-N-(4-hydroxyphenyl)-1,2-dimethyl-5-(6-{[(3S)-3-(morpholin-4-ylmethyl)-3,4-dihydroisoquinolin-2(1H)-yl]carbonyl}-1,3-benzodioxol-5-yl)-1H-pyrrole-3-carboxamide hydrochloride]	22.7 nM	–
8 nM	Cc1c(C(=O)N(c2ccccc2)c2ccc(O)cc2)cc(-c2cc(Cl)ccc2C(=O)N2Cc3ccccc3C[C@H]2CN2CCOCC2)n1C [Example 17, 5-(5-Chloro-2-{[(3S)-3-(morpholin-4-ylmethyl)-3,4-dihydroisoquinolin-2(1H)-yl]carbonyl}phenyl)-N-(4-hydroxyphenyl)-1,2-dimethyl-N-phenyl-1H-pyrrole-3-carboxamide hydrochloride]	75.2 nM	–
3.9 nM	Cc1c(C(=O)N(c2ccccc2)c2ccc(O)cc2)cc(-c2cc3c(cc2C(=O)N2Cc4ccccc4C[C@H]2CCN2CCOCC2)OCO3)n1CCO [Example 18, 1-(2-Hydroxyethyl)-N-(4-hydroxyphenyl)-2-methyl-5-(6-{[(3S)-3-[2-(morpholin-4-yl)ethyl]-3,4-dihydroisoquinolin-2(1H)-yl]carbonyl}-1,3-benzodioxol-5-yl)-N-phenyl-1H-pyrrole-3-carboxamide hydrochloride]	27.6 nM	–
4.9 nM	COc1ccc(C(=O)N2Cc3ccccc3C[C@H]2C)c(-c2cc(C(=O)N(c3ccncc3)c3ccc(O)cc3)c(C)n2C)c1 [Example 20, N-(4-Hydroxyphenyl)-5-(5-methoxy-2-{[(3R)-3-methyl-3,4-dihydroisoquinolin-2(1H)-yl]carbonyl}phenyl)-1,2-dimethyl-N-(pyridin-4-yl)-1H-pyrrole-3-carboxamide hydrochloride]	164 nM	–
4.7 nM	Cc1c(C(=O)N(c2ccc(O)cc2)c2cnn(C)c2)cc(-c2cc3c(cc2C(=O)N2Cc4ccccc4C[C@H]2CN2CCOCC2)OCCO3)n1C [Example 21, N-(4-Hydroxyphenyl)-1,2-dimethyl-N-(1-methyl-1H-pyrazol-4-yl)-5-(7-{[(3S)-3-(morpholin-4-ylmethyl)-3,4-dihydroisoquinolin-2(1H)-yl]carbonyl}-2,3-dihydro-1,4-benzodioxin-6-yl)-1H-pyrrole-3-carboxamide hydrochloride]	79.9 nM	–
6.6 nM	Cc1c(C(=O)N(c2ccccc2)c2ccc(O)cc2)cc(-c2cc3c(cc2C(=O)N2Cc4ccccc4C[C@H]2CN2CCOCC2)OCCO3)n1C [Example 22, N-(4-Hydroxyphenyl)-1,2-dimethyl-5-(7-{[(3S)-3-(morpholin-4-ylmethyl)-3,4-dihydroisoquinolin-2(1H)-yl]carbonyl}-2,3-dihydro-1,4-benzodioxin-6-yl)-N-phenyl-1H-pyrrole-3-carboxamide hydrochloride]	45.7 nM	–
3.6 nM	Cc1c(C(=O)N(c2ccc(O)cc2)c2cnn(C)c2)cc(-c2cc3c(cc2C(=O)N2Cc4ccccc4C[C@H]2C)OCO3)n1CCO [Example 23, 1-(2-Hydroxyethyl)-N-(4-hydroxyphenyl)-2-methyl-5-(6-{[(3R)-3-methyl-3,4-dihydroisoquinolin-2(1H)-yl]carbonyl}-1,3-benzodioxol-5-yl)-N-(1-methyl-1H-pyrazol-4-yl)-1H-pyrrole-3-carboxamide]	25.4 nM	–
6.2 nM	COc1ccc(C(=O)N2Cc3ccccc3C[C@H]2CN2CCOCC2)c(-c2cc(C(=O)N(c3ccc(O)cc3)c3cnn(C)c3)c(C)n2C)c1 [Example 24, N-(4-Hydroxyphenyl)-5-(5-methoxy-2-{[(3S)-3-(morpholin-4-ylmethyl)-3,4-dihydroisoquinolin-2(1H)-yl]carbonyl}phenyl)-1,2-dimethyl-N-(1-methyl-1H-pyrazol-4-yl)-1H-pyrrole-3-carboxamide hydrochloride]	79.1 nM	–
